For experiment [1], the system named is ADP induced aggregation of blood platelets (rat platelet rich plasma). The experiment in a line: inhibition of ADP induced platelet aggregation in vitro (rat platelet rich plasma, change in optical density; Born). It counts as cell-based. The conditions noted are these: for IC50: 10 min, read-out: IC50 ADP (concentration at which ADP induced platelet aggregation is inhibited by 50%). Here is the method:
Platelet aggregation was initiated in vitro by 0.125 to 0.25 mg/ml of ADP. Rat blood was collected into 3.0% trisodium citrate solution (1:10) by cardiac puncture under methoxyfurane anesthesia. The blood was centrifuged at 120 g for 10 minutes at room temperature and the supernatant platelet rich plasma was removed and diluted with lactated Ringer's solution containing the pyridazine aggregation inhibiting agent (1.0:1.5). Samples of 1.0 ml were pipetted into plastic test tubes and incubated for 10 minutes. Plastic equipment was used for all procedures. The concentration of the pyridazine compound in micromoles inhibiting ADP aggregation by 50% (IC50) was determined using changes in optical density as an indicium of platelet aggregation.
*Concentration in micromoles at which ADP induced platelet aggregation is […]

The test system of another experiment is tobacco black root rot. Nature of the experiment: fungicide, killing and control of tobacco black root rot. It counts as in vivo. The settings on record: 25 parts per million.
The subject of the next experiment is apple scab. Nature of the experiment: effectiveness against apple scab. The settings on record: 400 parts per million. The format is in vivo.
Experiment [2] concerns platelet aggregation / emboli formed in response to ADP. Nature of the experiment: protection of mice from ADP challenge (inclined screen). It counts as in vivo. The settings on record: of ten mice; 60 mgs per kilogram orally; ADP via tail vein one hour after. On the procedure:
Emboli formed in the vascular system of mice in response to the administration of ADP cause a stroke-like response that prevents mice from staying on an inclined screen. To illustrate the platelet aggregation inhibition effect of the aminoalkylthiopyridazines, ten mice were dosed orally with 60 mgs per kilogram of body weight of the compound 6-chloro-3-(2-diisopropylamino)ethylthio)pyridazine. One hour after compound administration, the mice were challenged with ADP (0.05 M mole/kg) by injection via the tail vein and placed on an inclined screen. The unprotected control mice were unable to maintain their position on the screen.

The next experiment relates to rootknot nematode. The experiment in a line: killing and control of rootknot nematode. The format is in vivo. The conditions noted are these: 2.4 pounds per 100 cu. ft. of soil.
Where [3] appears, read: rat platelet rich plasma, 0.125 to 0.25 mg/ml of ADP, incubated 10 minutes.

Like-named read-outs stand apart in the source and are kept apart here.

With `CN(C)CCCSc1ccc(Cl)nn1` [3-Chloro-6-(3-dimethylamino)propylthio)pyridazinium methane sulfonate], the IC50 in experiment [1] (setting [3]) came to 2400 µM.
Take `CCN(CC)CCCSc1ccc(Cl)nn1` [3-Chloro-6-(3-(diethylamino)propylthio)pyridazine]: the “effective as a fungicide in the killing and control of tobacco black root rot” value in the experiment on tobacco black root rot is reported as 100%. In experiment [1] (setting [3]), the IC50 was 3710 µM.
As for `c1cc(SCCN2CCOCC2)nnc1SCCN1CCOCC1` [3,6-Bis(2-(4-morpholinyl)ethylthio)pyridazine], the “effective against apple scab” value in the experiment with apple scab amounted to 90%. The IC50 in experiment [1] (setting [3]) came out at 13800 µM.
Consider `CC(C)N(CCSc1ccc(Cl)nn1)C(C)C` [6-Chloro-3-(2-(diisopropylamino)ethylthio)pyridazine], for which the “mice protected from the ADP challenge and remaining on the screen” value in experiment [2] is on record as 10 mice. In addition, in experiment [1] (setting [3]), the IC50 amounted to 140 µM. Also, the “platelet aggregation inhibiting activity (in words)” value in experiment [1] (Table I data) is “highly effective”.
With `Clc1ccc(SCCN2CCCCCC2)nn1` [3-Chloro-6-(2-(hexamethyleneimino)ethylthio)pyridazine], the IC50 in experiment [1] (setting [3]) stood at 2430 µM.
Still for that read-out and setting: the same measure for `Clc1ccc(SCCCN2CCOCC2)nn1` [3-Chloro-6-(3-(4-morpholinyl)propylthio)pyridazine]: 10500 µM; for `Clc1ccc(SCCN2CCCCC2)nn1` [3-Chloro-6-(2-(1-piperidinyl)ethylthio)pyridazine]: 3300 µM.
In the case of `Clc1ccc(SCCN2CCOCC2)nn1` [3-Chloro-6-(2-(4-morpholinyl)ethylthio)pyridazine], the “effective in the killing and control of rootknot nematode” value in the experiment with rootknot nematode is listed as 90%. Also, the IC50 in experiment [1] (Rattus norvegicus, Platelet) worked out at 2600 µM.

(Values after patent US4058520A, “Aminoalkylthiopyridazine compounds” (The Dow Chemical Company, priority 1976, dated 1977).)
